PMC7156458, “Synthetic biology based construction of biological activity-related library of fungal decalin-containing diterpenoid pyrones” (Nature Communications, 2020)
Several values for one entry are separate records, joined by “and”; a condition that tells them apart may be missing. Equal entries are not always repeated. Where two headings read alike, the source gives them in different places.

Experiments:
[1] = system: MCF-7 cells; assay: cell cytotoxic effects against MCF-7 cells (72 h), A490; format: cell-based, human
[2] = cytotoxicity in Drosophila DL1 cells; format: cell-based; details: Drosophila, DL1 cells (embryonic macrophage-derived), DL1 cells
Description: (§1) We screened the DDPs on the Drosophila assay system for cytotoxicity, inhibitory activity of innate immune signalling and insecticidal activity. The cytotoxicity of the DDPs was evaluated using two cell lines, embryonic macrophage-derived DL1 cells[58]–[60] and larval blood cell-derived l(2)mbn cells, and their IC50 values are listed in Supplementary Table 23.

[3] = system: DL1 cells; assay: cytotoxicity in Drosophila DL1 cells; format: cell-based; details: DL1 cells; for IC50: Drosophila melanogaster, cytotoxicity
Description: as §1

[4] = system: human immunodeficiency virus-1 (HIV-1); assay: anti-HIV MAGI assay; format: cell-based; details: anti-HIV
Text: We examined the inhibitory activities of DDPs against various species of bacteria (both gram-negative and gram-positive bacteria), fungi and viruses. […] In contrast, preliminary screening of the DDPs for anti-viral agents with hepatitis B virus (HBV), measles virus (MV), Epstein-Barr virus (EBV), herpes simplex virus (HSV) and human immunodeficiency virus-1 (HIV-1) indicated their selective inhibition of HIV.

[5] = system: HBC-5; assay: cells; design: species or system JFCR39 human cancer cell lines; JFCR39 panel growth inhibition, sulforhodamine B total protein after 48 h
Description: (§2) Supplementary Note 24. Antiproliferative effects across the panel of JFCR39 cancer cell lines A panel of 39 human cancer cell lines, termed JFCR39, were previously described13-16. Cells were grown in RPMI-1640 (FUJIFILM Wako Pure Chemical Corporation, Tokyo, Japan) supplemented with 1 µg mL-1 kanamycin and 5% (v/v) fetal bovine serum (Nichirei Biosciences Inc, Tokyo, Japan) and incubated at 37°C in a humidified atmosphere supplemented with 5% CO2. Drug efficacy was assessed as changes in total cellular protein after 48 hours of drug treatment using a sulforhodamine B assay. Assays were done in duplicate and the GI50 was calculated as described previously13,16. The antitumor profile across the JFCR39 panel, or fingerprints were then compared to reference database containing ~2000 compounds by COMPARE algorithm16,17. Initially, we evaluated new DDP analogues for their antiproliferative activities across the panel of 39 human cancer cell lines, JFCR39[50],[51].

[6] = system: LOX-IMVI; assay: cells; design: species or system JFCR39 human cancer cell lines; JFCR39 panel growth inhibition, sulforhodamine B total protein after 48 h; details: 48 h; inhibitor; Log GI50, 48 h
Description: as §2

[7] = system: MDA-MB-231; assay: cells; design: species or system JFCR39 human cancer cell lines; JFCR39 panel growth inhibition, sulforhodamine B total protein after 48 h
Description: as §2

[8] = system: MKN-B; assay: cells; design: species or system JFCR39 human cancer cell lines; JFCR39 panel growth inhibition, sulforhodamine B total protein after 48 h; details: 48 h; inhibitor; Log GI50, 48 h
Description: as §2

[9] = system: MKN1; assay: cells; design: species or system JFCR39 human cancer cell lines; JFCR39 panel growth inhibition, sulforhodamine B total protein after 48 h
Description: as §2

[10] = system: OVCAR-3; assay: cells; design: species or system JFCR39 human cancer cell lines; JFCR39 panel growth inhibition, sulforhodamine B total protein after 48 h
Description: as §2

[11] = system: OVCAR-8; assay: cells; design: species or system JFCR39 human cancer cell lines; JFCR39 panel growth inhibition, sulforhodamine B total protein after 48 h
Description: as §2

[12] = system: MAGI cells; assay: cytotoxicity in the anti-HIV assay (CC50); format: cell-based; details: average of numeric determinations
[13] = MCF-7, 72 h, 0.1 µM (DMSO 0.002%), control 1.064
[14] = MCF-7, 72 h, 1 µM (DMSO 0.02%), control 1.104
[15] = MCF-7, 72 h, 10 µM (DMSO 0.2%), control 1.049
[16] = replicate 1, relative to DMSO 1%, read-out: % viability, viability 1
[17] = replicate 2, relative to DMSO 1%, read-out: % viability, viability 2
[18] = 48 h, inhibitor, Log GI50, 48 h

Q: Which “cytotoxicity against the bulk of MCF-7 cells” value [1] does the source give for `C=C1CCC2C(C)(CCC=C(C)C)C(O)CCC2(C)C1Cc1c(OC)oc(CO)c(C)c1=O` (stereo not shown) [Compound 12] here?
A: Its value is “dose-dependent cytotoxicity”.

Q: And the viability at 0.1 µM ([1]; Homo sapiens, MCF7, 72 h, MCF-7, 72 h, 0.1 µM (DMSO 0.002%), read-out: A490 (control =1) ave)?
A: Its viability at 0.1 µM is 72.1%.

Q: And the A490 ave [1, 13]?
A: The A490 ave was 0.767.

Q: What about the A490 ave [1, 14] of the same compound?
A: The A490 ave was 0.265.

Q: What about the A490 ave [1, 15] of the same compound?
A: The A490 ave was 0.189.

Q: And the viability at 0.04 µM [2, 16]?
A: Its viability at 0.04 µM is 96.8%.

Q: What about the viability at 0.04 µM [2, 17] of the same compound?
A: Its viability at 0.04 µM is 104%.

Q: And the viability at 0.2 µM [2, 16]?
A: The viability at 0.2 µM was 86.4%.

Q: What about the viability at 0.2 µM [2, 17] of the same compound?
A: The viability at 0.2 µM was 86.2%.

Q: What about the viability at 1 µM [2, 16] of the same compound?
A: The viability at 1 µM was 8.66%.

Q: What about the viability at 1 µM [2, 17] of the same compound?
A: The viability at 1 µM was 7.51%.

Q: And the viability at 4 µM [2, 16]?
A: The viability at 4 µM was 5.97%.

Q: And the viability at 4 µM [2, 17]?
A: The viability at 4 µM was 5.72%.

Q: And the viability at 10 µM [2, 16]?
A: Its viability at 10 µM is 6.32%.

Q: What about the viability at 10 µM [2, 17] of the same compound?
A: Its viability at 10 µM is 6.35%.

Q: And the viability at 20 µM [2, 16]?
A: The viability at 20 µM was 3.83%.

Q: And the viability at 20 µM [2, 17]?
A: Its viability at 20 µM is 4.39%.

Q: What about the “Luminescence Raw1” value ([3]; 0.04 µM, replicate 1) of the same compound?
A: Its value is 1994873.

Q: And the “Luminescence Raw2” value ([3]; 0.04 µM, replicate 2)?
A: Its value is 2143826.

Q: And the “Luminescence Raw1” value ([3]; 0.2 µM, replicate 1)?
A: The value was 1779203.

Q: And the “Luminescence Raw2” value ([3]; 0.2 µM, replicate 2)?
A: The value was 1776317.

Q: What about the “Luminescence Raw1” value ([3]; 1 µM, replicate 1) of the same compound?
A: Its value is 178477.

Q: And the “Luminescence Raw2” value ([3]; 1 µM, replicate 2)?
A: Its value is 154679.

Q: What about the “Luminescence Raw1” value ([3]; 4 µM, replicate 1) of the same compound?
A: The value was 122950.

Q: What about the “Luminescence Raw2” value ([3]; 4 µM, replicate 2) of the same compound?
A: The value was 117902.

Q: What about the “Luminescence Raw1” value ([3]; 10 µM, replicate 1) of the same compound?
A: Its value is 130161.

Q: And the “Luminescence Raw2” value ([3]; 10 µM, replicate 2)?
A: Its value is 130882.

Q: What about the “Luminescence Raw1” value ([3]; 20 µM, replicate 1) of the same compound?
A: Its value is 78962.

Q: What about the “Luminescence Raw2” value ([3]; 20 µM, replicate 2) of the same compound?
A: The value was 90500.

Q: What about the IC50 ([3]; average of two replicates, read-out: IC50 Average) of the same compound?
A: The IC50 was 342 nM.

Q: And the IC50 ([3]; average±SEM, read-out: IC50)?
A: Its IC50 is 340 ± 30 nM.

Q: And the IC50 ([3]; replicate 1, read-out: IC50 (1))?
A: The IC50 was 371 nM.

Q: And the IC50 ([3]; replicate 2, read-out: IC50 (2))?
A: Its IC50 is 314 nM.

Q: And the EC50 ([4]; Human immunodeficiency virus 1, MAGI, MAGI assay, read-out: EC50)?
A: Its EC50 is less than 200 nM.

Q: And the GI50 ([5]; HBC5, 48 h)?
A: Its GI50 is 8730 nM.

Q: What about the “Log GI50” value [6] of the same compound?
A: The value was -6.218 M.

Q: And the GI50 ([7]; Homo sapiens, MDA-MB-231, 48 h)?
A: Its GI50 is 13500 nM.

Q: And the “Log GI50” value [8]?
A: The value was -5.948 M.

Q: What about the GI50 ([9]; Homo sapiens, MKN-1, 48 h) of the same compound?
A: The GI50 was 13700 nM.

Q: What about the GI50 ([10]; Homo sapiens, OVCAR-3, 48 h) of the same compound?
A: The GI50 was 4690 nM.

Q: What about the GI50 ([11]; Homo sapiens, OVCAR-8, 48 h) of the same compound?
A: Its GI50 is 5640 nM.

Q: Which “cytotoxicity against the bulk of MCF-7 cells” value [1] does the source give for `C=C1CCC2C(C)(CCC=C(C)C)C(O)CCC2(C)C1Cc1c(OC)oc(CO)c(C)c1=O` (stereo not shown) [Compound 16] here?
A: Its value is “Low-toxicity”.

Q: And the A490 ave [1, 13]?
A: Its A490 ave is 0.808.

Q: What about the A490 ave [1, 14] of the same compound?
A: Its A490 ave is 1.178.

Q: And the A490 ave [1, 15]?
A: The A490 ave was 0.730.

Q: What about the EC50 ([4]; average of numeric determinations, read-out: Avg. EC50) of the same compound?
A: The EC50 was 48.2 nM.

Q: What about the EC50 ([4]; single determinations, read-out: Efficacy (EC50)) of the same compound?
A: The EC50 was 55.6 nM and 36.4 nM and 54.6 nM and 46.4 nM.

Q: What about the “Cytotoxicity Avg.” value [12] of the same compound?
A: The value was 6.65 µM.

Q: And the “Log GI50” value [5, 18]?
A: The value was -4.986 M.

Q: And the “Log GI50” value [6]?
A: The value was -5.224 M.

Q: And the “Log GI50” value [7, 18]?
A: The value was -4.882 M.

Q: And the “Log GI50” value [8]?
A: The value was -5.237 M.

Q: And the “Log GI50” value [9, 18]?
A: Its value is -4.787 M.

Q: And the “Log GI50” value [10, 18]?
A: The value was -5.447 M.

Q: What about the “Log GI50” value [11, 18] of the same compound?
A: The value was -5.076 M.
